# From patent US6319910A, “Method for inhibiting cyclooxygenase-2 and tumor necrosis factor alpha” (Hospital for Joint Diseases, priority 1998, dated 2001)
# Columns and labels:
# [1] = biological target: T1, COX-2 (Mus musculus, UniProt Q05769); experiment: COX-2 specific activity in cell-free extracts of LPS-stimulated RAW 264.7 cells (PGE2 by RIA); assay type: biochemical, murine
# T1 construct: using total unfractionated cell extracts; endogenous in cells; host or cells: RAW 264.7 cells, LPS-induced; cell-free extract
# T1 sequence (Q05769 18-604): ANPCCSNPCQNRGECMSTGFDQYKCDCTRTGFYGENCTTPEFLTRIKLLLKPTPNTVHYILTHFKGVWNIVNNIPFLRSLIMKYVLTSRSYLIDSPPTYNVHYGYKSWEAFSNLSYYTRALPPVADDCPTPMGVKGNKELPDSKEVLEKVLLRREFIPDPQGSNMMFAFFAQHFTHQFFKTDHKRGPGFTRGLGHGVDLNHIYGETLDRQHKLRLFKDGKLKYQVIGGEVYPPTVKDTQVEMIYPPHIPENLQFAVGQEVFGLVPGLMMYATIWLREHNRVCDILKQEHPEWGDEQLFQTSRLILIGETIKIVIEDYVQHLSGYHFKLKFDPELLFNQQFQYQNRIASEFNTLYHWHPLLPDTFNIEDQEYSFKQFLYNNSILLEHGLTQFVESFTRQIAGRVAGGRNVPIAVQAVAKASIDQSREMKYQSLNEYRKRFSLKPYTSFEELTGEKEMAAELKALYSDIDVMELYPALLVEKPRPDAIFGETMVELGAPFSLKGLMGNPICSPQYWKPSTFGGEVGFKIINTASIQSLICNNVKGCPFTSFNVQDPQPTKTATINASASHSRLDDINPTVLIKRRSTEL
# Procedure: Raw 264.7 cells were stimulated with LPS and cell-free extracts were prepared as follows. RAW 264.7 cells were induced with LPS (100 ng/ml) in the presence or absence of tetracyclines or hydrocortisone for 14-20 hours. Following induction, the cells were pelleted at 4° C. and resuspended in Tris buffer: 10 mM, pH 7.4 containing 10 μg/ml each of chymostatin, antipain, leupeptin and pepstatin, 1 mM DDT and 1 mM PMSF. Cells were lysed in a Polytron PA 1200 homogenizer (Kinematica AG, Switzerland) with the cocktail of protease inhibitors after 3 cycles of rapid freeze-thawing. The lysate was centrifuged at 18,000 at 4° C. in an eppendorf centrifuge, and the resulting supernatant was used as cell-free extracts. The protein was measured by BCA assay reagent (Pierce, Rockford, Ill.) using BSA as standard. […] The specific enzyme activity was defined as ng of PGE2 released/mg protein/37° C. for 20 minutes.
# RAW 264.7 cells were stimulated with 1 μg/ml of LPS for 16 hours and cell-free extracts were prepared as described above. The extracts were incubated with different modulators for 20 minutes at 37° C. before adding the substrate to initiate the enzyme reaction, which was terminated after 30 minutes by heat inactivation. The data represent one of the two experiments, the PGE2 analysis from each sample was done in triplicates n=3. The p value is a comparison between control and experimentals.
# [2] = system: bovine chondrocytes; experiment: Nitrite (NO) production in LPS stimulated bovine chondrocytes; assay type: cell-based; conditions: FIGS. 3 and 9; LPS 100 μg/ml; words
# [3] = system: COX-2; experiment: Expression/modification (size) of COX-2 in LPS-stimulated murine macrophages, Western blot; assay type: cell-based; conditions: LPS 100 ng/ml
# Procedure: (§1) RAW 263.7 cells were grown as previously described (Amin et al, 1995b). Murine macrophages stimulated with 100 ng/ml LPS were incubated with CMT-3 or tunicamycin (a glycosylation inhibitor). […] Nitrite and PGE2 were estimated as previously described (Amin et al, 1995b). It is quite possible that CMT-3 may inhibit COX-2 and PGE2 production by post translational modification of COX-2 which may be similar to tunicamycin inhibition. The data represents the mean±SD evaluated by T test (n=3).
# Murine macrophage cells were cultivated as previously described (Amin et al, 1995b). […] cells were stimulated with 100 ng/ml of LPS in the presence of CMT-3, CMT-5 and glycosylation inhibitor, tunicamycin. The cells were grown for 16 hr and harvested. The cell free extracts were prepared as previously described (Amin et al, 1995b). In FIG. 4A, 50 μg of protein was loaded in each well and run on SDS-PAGE gels and blotted onto Western blots using a specific anti COX-2 antibody as previously described (Amin et al, 1997a). The positive control is a standard COX-2. […] The size is approximately 2000 D smaller (CMT-3 form) than the native COX-2 shown as a standard. […] These experiments indicate that CMT-3 induces modification of the COX-2 protein. The SDS PAGE analysis and Western blotting of COX-2 was carried out as described above.
# [4] = system: RAW 264.7 cells; experiment: Nitrite (NO) production/accumulation in LPS-stimulated RAW 264.7 cells; assay type: cell-based, murine; conditions: LPS 100 ng/ml; for Nitrite / inhibition at 10 µg/mL: compound 10 μg/ml; for Effect on NO production: words; for inhibition at 10 µg/mL: Mus musculus, RAW264.7, 16 h
# [5] = system: COX-2; experiment: COX-2 expression in cells/cartilage (general statement); assay type: cell-based; conditions: words
# [6] = system: NOS; conditions: previously shown; words; cited from earlier work
# [7] = system: NOS; experiment: NOS expression in LPS-stimulated murine macrophages; assay type: cell-based; conditions: FIG. 2; LPS 100 ng/ml; words
# Procedure: as §1
# [8] = system: iNOS mRNA; conditions: Amin et al, 1997b; words; cited from earlier work
smiles,measurement,setting,value
"NC(=O)C1=C(O)C2(O)C(=O)C3=C(O)c4c(O)cccc4CC3CC2CC1=O (stereo not shown) [CMT-3, 6-demethyl-6-deoxy-4-dedimethylaminotetracycline]",Effect on specific activity of COX-2,"[1]; CMT-3 27 μM, CMT-8 27 μM, aspirin 56 μM, indomethacin 28 μM, words",significantly inhibited the specific activity of COX-2
same,COX-2 Specific Activity,"[1]; Table 3, cell-free extracts, 10 μg (aspirin amount not given)",2.8 ± 4.0 PGE2 ng/mg protein
same,Effect on NO production,[2],inhibit NO and PGE2 production
same,Effect on COX-2 expression,"[3]; FIG. 2, words",inhibit
same,Decrease in size of COX-2 versus native COX-2,"[3]; FIG. 4A, 16 hr, Western blot",approximately 2000 D
same,Effect on size of COX-2,"[3]; FIG. 4A, 16 hr, Western blot, words",decrease in the size of COX-2
same,Nitrite,"[4]; Experiment I, 16 hours",24.7 µM
same,Nitrite,"[4]; Experiment II, 16 hours",11.7 µM
same,Effect on NO production,"[4]; FIG. 1, 16 hours",blocks both NO and PGE2 production
same,Effect on NO production,[4]; FIG. 2,inhibit
same,inhibition at 10 µg/mL,"[4]; Experiment I, 16 hours",48%
same,inhibition at 10 µg/mL,"[4]; Experiment II, 16 hours",46%
same,Effect on COX-2 expression,[5],inhibits COX-2 expression and PGE2 production
same,NOS activity,[6],inhibit NOS activity
same,Effect on NOS expression,[7],inhibit
same,Effect on iNOS mRNA expression,[8],inhibiting iNOS mRNA expression
